Experiment [1] addresses human A2a adenosine receptor (Homo sapiens (Human), UniProt P29274). The experiment can be described thus: A2a receptor affinity radioligand binding assay ([3H] SCH58261, membranes from HEK293 or CHO cells). Particulars: unstarred values: radioligand binding. An outline of the steps: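 Displacement of tritiated SCH58261 (working dilution 4 nM) from recombinant human A2a receptor membranes (HEK293 or CHO), 60 min at room temperature in Tris pH 7.4/MgCl2 buffer after 15–30 min compound preincubation. Scintillation counting after filtration; normalized percent effect fitted 4-parameter logistic for IC50.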

Experiment [2] has as its target T1, human A2b adenosine receptor (Homo sapiens (Human), UniProt P29275). The experiment can be described thus: A2B antagonism in cAMP cell-based assay (LANCE cAMP, HEK293 cells, 600 nM adenosine). Particulars: for IC50: values marked *: cAMP cell-based assay. The procedure: Measurement of A2A and A2B Antagonism in cAMP Cell-Based Assay
All subsequent liquid additions were performed using a multichannel pipettor. […] After this time 5 μL of either 300 nM or 600 nM adenosine (Sigma Cat. No. A9251) for A2A and A2B respectively was added and incubated for 30 minutes at 37° C. and 5% CO2 in a humidified environment. At this time detection mix was prepared by combining the LANCE Eu-W8044 labeled streptavidin and. Biotin-cAMP in detection buffer according to the manufacturers protocol. […] Curve fitting of the percent effect data versus the log of compound concentration used a 4-parameter concentration response curve fitting algorithm to calculate IC50 values.
(In general: In TR-FRET formats the signal depends on donor and acceptor labels being close together.)

Experiment [3] has as its target T1, human A2b adenosine receptor. The experiment can be described thus: A2b radioligand filtration binding assay (tritiated proprietary A2b antagonist, HEK293 membranes). As to conditions: unstarred values: radioligand binding. The method, boiled down: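 Displacement of a tritiated proprietary A2b antagonist from membranes of HEK293 cells recombinantly expressing human A2b receptor, measured by filtration and scintillation counting. Percent effect was normalized to total and non-specific binding and fitted with a 4-parameter logistic to give IC50.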

As usually defined, the IC50 is the midpoint of a concentration-inhibition curve. Lower therefore signals higher potency.

Chain of human A2a adenosine receptor (P29274 whole entry): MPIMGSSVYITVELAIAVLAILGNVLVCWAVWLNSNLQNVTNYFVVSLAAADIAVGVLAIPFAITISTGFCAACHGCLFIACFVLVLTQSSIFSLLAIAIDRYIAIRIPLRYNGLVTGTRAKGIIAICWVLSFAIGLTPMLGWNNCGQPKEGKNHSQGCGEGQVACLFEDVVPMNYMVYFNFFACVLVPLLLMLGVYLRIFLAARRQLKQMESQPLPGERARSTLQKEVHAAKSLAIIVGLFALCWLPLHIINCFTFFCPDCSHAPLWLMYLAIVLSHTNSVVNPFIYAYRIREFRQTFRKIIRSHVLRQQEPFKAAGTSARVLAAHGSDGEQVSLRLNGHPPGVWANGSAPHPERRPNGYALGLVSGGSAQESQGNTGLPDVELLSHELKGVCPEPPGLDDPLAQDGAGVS
T1 sequence (P29275 whole entry): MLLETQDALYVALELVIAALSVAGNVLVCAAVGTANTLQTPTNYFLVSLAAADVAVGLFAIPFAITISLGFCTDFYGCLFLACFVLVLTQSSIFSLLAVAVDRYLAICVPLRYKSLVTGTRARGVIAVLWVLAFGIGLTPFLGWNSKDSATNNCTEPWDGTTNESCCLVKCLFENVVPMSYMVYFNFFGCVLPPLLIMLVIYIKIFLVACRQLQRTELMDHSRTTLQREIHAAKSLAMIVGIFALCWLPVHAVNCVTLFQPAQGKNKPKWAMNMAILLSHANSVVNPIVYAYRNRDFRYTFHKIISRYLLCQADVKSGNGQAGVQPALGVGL

Turning to `Nc1nc2c(Cl)cccc2c2nc(C3CCCN(c4cnn(C5CC5)c4)C3)nn12` (racemic) [Example 133, rac-7-chloro-2-(1-(1-cyclopropyl-1H-pyrazol-4-yl)piperidin-3-yl)-[1,2,4]triazolo[1,5-c]pyquinazolin-5-amine], the 50% inhibitory concentration (IC50) in experiment [1] was determined as 1.2 nM; in experiment [2] it was 116 nM.
With `Cn1cc(N2CCCC(c3nc4c5cccc(F)c5nc(N)n4n3)C2)cn1` (single isomer, unassigned) [Example 131A, (R or S)-7-fluoro-2-(1-(1-methyl-1H-pyrazol-4-yl)piperidin-3-yl)-[1,2,4]triazolo[1,5-c]quinazolin-5-amine], the IC50 in experiment [1] stood at 34 nM; in experiment [2], 1680 nM.
Consider `Cn1cc(N2CCCC(c3nc4c5cccc(F)c5nc(N)n4n3)C2)cn1` (single isomer, unassigned) [Example 131B, (S or R)-7-fluoro-2-(1-(1-methyl-1H-pyrazol-4-yl)piperidin-3-yl)-[1,2,4]triazolo[1,5-c]quinazolin-5-amine], for which the IC50 in experiment [1] stood at 9.3 nM; in experiment [2], 121 nM.
Regarding `Cn1cc(N2CCCC(c3nc4c5cccc(Cl)c5nc(N)n4n3)C2)cn1` (single isomer, unassigned) [Example 132A], the IC50 in experiment [1] came out at 18.6 nM. For the same molecule, the “*A2B cAMP ^ % @ 10000 nM” value in experiment [2] (@ 10000 nM, marked *, printed with ^ and without inh.) amounted to 31% @ 10000 nM*.
For the molecule `Cn1cc(N2CCCC(c3nc4c5cccc(Cl)c5nc(N)n4n3)C2)cn1` (single isomer, unassigned) [Example 132B], the IC50 was 3.9 nM in experiment [1] and 205 nM in experiment [2].
Turning to `COc1cccc2c1nc(N)n1nc(C3CCC(C)N(c4cnn(C5CC5)c4)C3)nc21` (single isomer, unassigned) [Example 141A], the half-inhibitory concentration (IC50) in experiment [1] worked out at 2.2 nM; in experiment [2], 712 nM.
As for `COc1cccc2c1nc(N)n1nc(C3CCC(C)N(c4cnn(C5CC5)c4)C3)nc21` (single isomer, unassigned) [Example 141B], the IC50 in experiment [1] was 28.2 nM; in experiment [2] it was 2610 nM.
Take `COc1cccc2c1nc(N)n1nc(C3CCC(C)N(c4cnn(C5CC5)c4)C3)nc21` (single isomer, unassigned) [Example 141D]: the IC50 in experiment [1] was determined as 3.1 nM; in experiment [2], 1650 nM.
For `COc1cccc2c1nc(N)n1nc(C3CCC(C)N(c4cnn(CC(F)(F)F)c4)C3)nc21` (single isomer, unassigned) [Example 142A, 7-methoxy-2-((3S,6S or 3R,6R)-6-methyl-1-(1-(2,2,2-trifluoroethyl)-1H-pyrazol-4-yl)piperidin-3-yl)-[1,2,4]triazolo[1,5-c]quinazolin-5-amine], the IC50 in experiment [1] was 53.8 nM; in experiment [2], 985 nM.
Regarding `COc1cccc2c1nc(N)n1nc(C3CCC(C)N(c4cnn(CC(F)(F)F)c4)C3)nc21` (single isomer, unassigned) [Example 142B, 7-methoxy-2-((3R,6R or 3S,6S)-6-methyl-1-(1-(2,2,2-trifluoroethyl)-1H-pyrazol-4-yl)piperidin-3-yl)-[1,2,4]triazolo[1,5-c]quinazolin-5-amine], the IC50 in experiment [1] is 0.8 nM; in experiment [2], 1150 nM.
The matching figures for `COc1cccc2c1nc(N)n1nc(C3CCC(C)N(c4cnn(CC(F)(F)F)c4)C3)nc21` (single isomer, unassigned) [Example 142D]: 0.9 nM and 9.3 nM.
The matching figures for `COc1cccc2c1nc(N)n1nc(C3CCC(C)N(c4cnn(CC(C)(C)O)c4)C3)nc21` (single isomer, unassigned) [Example 143B, 1-(4-((2S,5S or 2R,5R)-5-(5-amino-7-methoxy-[1,2,4]triazolo[1,5-c]quinazolin-2-yl)-2-methylpiperidin-1-yl)-1H-pyrazol-1-yl)-2-methylpropan-2-ol]: 0.9 nM and 604 nM.
For the molecule `COc1cccc2c1nc(N)n1nc(C3CCC(C)N(c4cnn(CC(C)(C)O)c4)C3)nc21` (single isomer, unassigned) [Example 143C], the IC50 in experiment [1] was 31.6 nM; in experiment [2] it was 651 nM.
As to `COc1cccc2c1nc(N)n1nc(C3CCC(C)N(c4cnn(CC5(O)CCC5)c4)C3)nc21` (single isomer, unassigned) [Example 144D], the IC50 in experiment [1] is 1.2 nM; in experiment [2], 4 nM.
For `COc1cccc2c1nc(N)n1nc(C3CN(c4cnn(C5CC5)c4)CC(F)(F)C3)nc21` (single isomer, unassigned) [Example 154A], the IC50 was determined as 0.8 nM in experiment [1] and 386 nM in experiment [2].
`COc1cccc2c1nc(N)n1nc(C3CN(c4cnn(C5CC5)c4)CC(F)(F)C3)nc21` (single isomer, unassigned) [Example 154B] came in with an IC50 in experiment [1] of 17.4 nM. Moreover, in experiment [2] (@ 10000 nM, marked *), the “*A2B cAMP % inh. @ 10000 nM” value is listed as 13% inh. @ 10000 nM*.
Take `COc1cccc2c1nc(N)n1nc(C3CN(c4cnn(CC(F)(F)F)c4)CC(F)(F)C3)nc21` (single isomer, unassigned) [Example 155A]: the IC50 in experiment [1] amounted to 12.1 nM; in experiment [2], 1330 nM.
Consider `C[C@H]1CC[C@@H](c2nc3c4ccc(C5CCC5)cc4nc(N)n3n2)CN1c1cnn(CC(C)(C)O)c1` [Example 209, 1-(4-((2S,5R)-5-(5-amino-8-cyclobutyl-[1,2,4]triazolo[1,5-c]quinazolin-2-yl)-2-methylpiperidin-1-yl)-1H-pyrazol-1-yl)-2-methylpropan-2-ol], for which the half-inhibitory concentration (IC50) in experiment [1] stood at 28.7 nM; in experiment [3], 328 nM.
For the molecule `COc1ccc2c(c1)nc(N)n1nc([C@@H]3CC[C@H](C)N(c4cnn(C5CCC[C@H]5O)c4)C3)nc21` (stereo partly drawn) [Example 210A], the IC50 in experiment [1] was determined as 0.2 nM; in experiment [3] it was 4.8 nM.
Turning to `COc1ccc2c(c1)nc(N)n1nc([C@@H]3CC[C@H](C)N(c4cnn([C@@H](C)C(C)(C)O)c4)C3)nc21` [Example 211A, (S)-3-(4-((2S,5R)-5-(5-amino-8-methoxy-[1,2,4]triazolo[1,5-c]quinazolin-2-yl)-2-methylpiperidin-1-yl)-1H-pyrazol-1-yl)-2-methylbutan-2-ol], the IC50 in experiment [1] was determined as 0.5 nM; in experiment [3], 3.4 nM.
The matching figures for `COc1ccc2c(c1)nc(N)n1nc([C@@H]3CC[C@H](C)N(c4cnn([C@H](C)C(C)(C)O)c4)C3)nc21` [Example 211B, (R)-3-(4-((2S,5R)-5-(5-amino-8-methoxy-[1,2,4]triazolo[1,5-c]quinazolin-2-yl)-2-methylpiperidin-1-yl)-1H-pyrazol-1-yl)-2-methylbutan-2-ol]: 0.6 nM and 16.1 nM.
For `COc1ccc2c(c1)nc(N)n1nc([C@H]3CC[C@@H](C)N(c4cnn([C@@H](C)C(C)(C)O)c4)C3)nc21` [Example 212A], the values for the IC50 in experiment [1] and in experiment [3] were 221 nM and 5480 nM, respectively.
Turning to `COc1ccc2c(c1)nc(N)n1nc([C@H]3CC[C@@H](C)N(c4cnn([C@H](C)C(C)(C)O)c4)C3)nc21` [Example 212B, (R)--3-(4-((2R,5S)-5-(5-amino-8-methoxy-[1,2,4]triazolo[1,5-c]quinazolin-2-yl)-2-methylpiperidin-1-yl)-1H-pyrazol-1-yl)-2-methylbutan-2-ol], the figures for the IC50 in experiment [1] and in experiment [3] were 234 nM and 8280 nM, respectively.
For the molecule `COc1ccc2c(c1)nc(N)n1nc(C3CCCCN(c4cnn(CC(C)(C)O)c4)C3)nc21` (stereo not drawn) [Example 217, 1-(4-(3-(5-amino-8-methoxy-[1,2,4]triazolo[1,5-c]quinazolin-2-yl)azepan-1-yl)-1H-pyrazol-1-yl)-2-methylpropan-2-ol], the IC50 in experiment [1] was 4.6 nM; in experiment [3], 207 nM.

The record behind these values is US12263171B2, “7-, 8-, and 10-substituted amino triazolo quinazoline derivatives as adenosine receptor antagonists, pharmaceutical compositions and their use” (Merck Sharp & Dohme LLC, priority 2018, dated 2025).
